The source of these data is patent US20060269907A1, “Decontamination of biological fluids using diphenylpyrilium compounds” (priority 2003, published 2006).

The test system of data set [1] is extracellular VSV. Type of data set: cell-based, Vesicular Stomatitis Virus.
Data set [2] has as its system E. coli. Briefly: Bacterial photoinactivation in red cell suspensions. In kind it is cell-based.
In data set [3] the test system is S. marcescens. Type of data set: cell-based.
Data set [4] relates to Y. enterocolitica. Nature of the data set: Bacterial photoinactivation in red cell suspensions. Type of data set: cell-based.
The test system of data set [5] is S. epidermidis. Type of data set: cell-based.
Data set [6] relates to S. aureus. Nature of the data set: Bacterial photoinactivation in red cell suspensions. In kind it is cell-based.
The test system of data set [7] is P. fluorescens. Type of data set: cell-based.
For data set [8], the system named is S. liquefaciens. In kind it is cell-based.
Data set [9] relates to gram positive and gram negative organisms. Type of data set: cell-based.
In data set [10] the test system is extracellular HIV. Nature of the data set: Photoinactivation of extracellular HIV in RBC suspensions. As to conditions: 80 μM TP; 200 μM DP; 20-percent hct RBCs in Erythrosol; 1.1 J/cm^2 light. In kind it is cell-based, HIV-1.
For data set [11], the system named is intracellular HIV. Nature of the data set: Photoinactivation of intracellular HIV in RBC suspensions. Type of data set: cell-based, HIV-1. The note with it: 80 μM TP; 200 μM DP; 20-percent hct RBCs in Erythrosol; 1.1 J/cm^2 light.
Data set [12] concerns extracellular PRV. In kind it is cell-based, Pseudorabies virus.
Data set [13] has as its system extracellular DHBV. Briefly: Photoinactivation of extracellular DHBV in RBC suspensions. Type of data set: cell-based. As to conditions: 10 μM TP; 200 μM DP; 20-percent hct RBCs in Erythrosol; 1.1 J/cm^2 light.
Data set [14] concerns extracellular BVDV. Type of data set: cell-based.
For data set [15], the system named is all tested viruses. Type of data set: cell-based.
Data set [16] concerns red cells.
The test system of data set [17] is red cells. The note with it: n=10.
In data set [18] the test system is RBCs. The note with it: n = 4.
For data set [19], the system named is red blood cells. As to conditions: cited from earlier work.
The subject of data set [20] is RBCs. Nature of the data set: Spectroscopic assay of TP binding to RBCs. As to conditions: 200 μM DP; 160 μM TP; 20-percent hct RBCs in Erythrosol.
Data set [21] has as its system intracellular VSV. In kind it is cell-based, Vesicular Stomatitis Virus.
The test system of data set [22] is D. radiodurans. Briefly: Bacterial photoinactivation in red cell suspensions. Type of data set: cell-based. The note with it: 160 μM compound 2; RBCs 20% hematocrit in Erythrosol; 2 min 8.9 mW/cm^2 red light.
[23] abbreviates: 100 μM TP, 200 μM DP and 1.1 J/cm^2 red light, 20% hct RBCs in Erythrosol, n = 4.
[24] abbreviates: 160 μM compound 2, RBCs 20% hematocrit in Erythrosol, 2 min 8.9 mW/cm^2 red light.

Read-outs that look alike come from different tables or passages of the source.

Turning to `Cc1cc(-c2ccc(N(C)C)cc2)cc(-c2ccc(N(C)C)cc2)[s+]1.[I-]` [Compound 2, 2′,4′-bis(4-N,N-dimethylaminophenyl) 6′-methylthiopyrilium iodide], the “log10 inactivation of extracellular VSV” value in data set [1] was over 8.4 log10. In addition, the “log10 inactivation” value in [2] (setting [23]) was 7.1 ± 0.5 log10; in [3] (n = 4), 6.2 ± 1.0 log10; in [4] (setting [23]), 5.9 ± 0.6 log10; in [5] (n = 4), over 7.6 log10; in data set [6] (setting [23]) it was over 6.3 log10; in [7] (n = 4) it was 5.4 ± 1.0 log10. Further, the “log10 inactivation” value in [8] (n = 4) is on record as over 7.1 log10. Further, the “log10 inactivation of 5 of 7 tested organisms” value in [9] is reported as over 6 log10. Further, the “log10 inactivation of all tested organisms” value in data set [9] is on record as over 4 log10. In addition, the “log10 inactivation of extracellular HIV” value in data set [10] is on record as over 7.5 log10. For the same molecule, in data set [11], the “log10 inactivation of intracellular HIV” value stood at 6.2±0.1 log10. The “log10 inactivation of extracellular PRV” value in data set [12] is reported as over 6.3 log10. For the same molecule, the “log10 inactivation of extracellular DHBV” value in [13] is over 5.8 log10. The “log10 inactivation of extracellular BVDV” value in data set [14] is on record as over 6 log10. For the same molecule, in [15], the “inactivation of all tested viruses” value is given as “inactivated to the limit of assay detection”. Also, in data set [16] (n=10), the “hemolysis following 42 day 1-6° C. storage” value stood at 0.29%. The “potassium in the supernatant” value in data set [17] worked out at 16.6 ± 4.2 mM. Further, the “potassium released to the supernatant” value in [17] was found to be 38.4 ± 4.4 mM. Besides, the ATP level in data set [18] was found to be 2.63±0.07 μmole/g Hb. The molecule also registered a morphology score in data set [18] of 94.5±1.5.

For the molecule `Cc1cc(=[N+](C)C)cc2sc3cc(N(C)C)cc(C)c3nc1-2.[Cl-]` [dimethylmethylene blue], the hemolysis entry is recorded as “roughly 25%” in [19] (dye and light, after 6 week refrigerated storage in ADSOL); “about 2%” in data set [19] (following 6 weeks of 1-6° C. storage in Erythrosol); “approximately 1.2%” in data set [19] (six weeks of 1-6° C. storage in Erythrosol, RBCs pre-incubated with quinacrine).

On to `OCCN(CCO)c1nc(N2CCCCC2)c2nc(N(CCO)CCO)nc(N3CCCCC3)c2n1` [dipyridamole, reference compound], for which, in data set [20], the “TP binding sites in RBCs blocked by DP” value is listed as “approximately 36%”.

`Cc1cc(-c2ccc(N(C)C)cc2)cc(-c2ccc(N(C)C)cc2)[s+]1` [Compound 2, 2′,4′-bis(4-N,N-dimethylaminophenyl) 6′-methylthiopyrilium iodide]: the “log10 inactivation of extracellular VSV” value in data set [1] is over 7 log10. Moreover, the “Log10 VSV inact. (extracellular)” value in [1] (10 μM) is reported as 1.3 log10; in data set [1] (20 μM), 2.2 log10; in data set [1] (30 μM), 2.7 log10; in data set [1] (60 μM), 4.8 log10; in data set [1] (90 μM), 5.7 log10; in data set [1] (160 μM), over 7 log10. Further, the “log10 inactivation of intracellular VSV” value in data set [21] was 4.0 log10. For the same molecule, the “log10 VSV inact. (intracellular)” value in data set [21] (160 μM) is listed as over 5 log10. Moreover, the log10 inactivation is reported as over 7.9 log10 in [2] (setting [24]); over 6.9 log10 in data set [3]; over 7.5 log10 in data set [4] (setting [24]); over 7.9 log10 in data set [22]; over 7.9 log10 in data set [5]; over 6.8 log10 in [6] (setting [24]). Further, the results for the log10 inactivation in data set [7] and in data set [8] were over 7.7 log10 and over 7.4 log10, respectively. For the same molecule, in data set [9], the “bacteria remaining after inactivation (limit of detection)” value is on record as under 1 CFU/mL. This molecule also displayed a hemolysis in [16] of under 1%. The “Hemolysis (%) (day 42)” value in data set [16] (160 μM) is reported as 0.45%.
